Data from publication PMC7778606, “Development of the phenylpyrazolo[3,4-d]pyrimidine-based, insulin-like growth factor receptor/Src/AXL-targeting small molecule kinase inhibitor” (Theranostics, 2021).

Columns and labels:
[1] = tested on: A549 cells; experiment: MTT assay, viability of A549 cells; format: cell-based; settings: Homo sapiens, 72 h; A549, MTT assay, 10 μM; read-out: % cells growth at 10 μM
Procedure: (§1) Cells were seeded into 96-well plates at a density of 1-2 × 10^3 cells/well and incubated for 24 h. Cells were treated with vehicle or various concentrations of test compounds for two (PC9 and PC9/ER cells) or three (other cells) days. Cells were further incubated with MTT solution (final concentration of 500 μg/mL) for 4 h at 37 °C. The formazan products were dissolved in dimethyl sulfoxide (DMSO), and the absorbance was measured at 570 nm. The data are presented as a percentage of the control group.

[2] = tested on: H1299 cells; experiment: MTT assay, viability of H1299 cells; format: cell-based; settings: Homo sapiens, NCI-H1299, 72 h, three days, read-out: IC50 against the viability
Procedure: as §1

[3] = tested on: H460 cells; experiment: MTT assay, viability of H460 cells; format: cell-based; settings: Homo sapiens, NCI-H460, 72 h, three days, read-out: IC50 against the viability
Procedure: as §1

[4] = tested on: IGF-1R; experiment: Western blot, phosphorylation of IGF-1R in H1944 and A549 cells; format: cell-based, human; settings: 2 μM monotherapy, 1 day
Procedure: (§2) Before harvesting, the cells were stimulated with 10% FBS for 20 min. Total cell lysates were prepared with modified radioimmunoprecipitation assay lysis buffer (50 mM Tris-HCl [pH 7.4], 150 mM NaCl, 1 mM EDTA, 0.25% sodium deoxycholate, 1% Triton X-100, 100 mM NaF, 5 mM Na3VO4, 1 mM PMSF, 1 μg/mL aprotinin, 1 μg/mL leupeptin, and 1 μg/mL pepstatin). Equal amounts of protein (20 μg) were subjected to 8% SDS-PAGE and electrically transferred onto polyvinylidene difluoride membranes (Bio-Rad Laboratories, Hercules, CA, USA). Membranes were blocked with blocking buffer (3% BSA in Tris-buffered saline containing 0.1% Tween-20 [TBST]) for 1 h at room temperature. The membranes were incubated with primary antibodies diluted in 3% BSA in TBST (1:1,000) overnight at 4 °C, washed multiple times with TBST, and incubated with secondary antibodies diluted in 3% nonfat dry milk in TBST (1:5,000) for 1 h at room temperature. The membranes were washed multiple times with TBST and visualized using an enhanced chemiluminescence detection kit (Thermo Fisher Scientific). Densitometric analysis was performed using ImageJ software.

[5] = tested on: AXL; experiment: Western blot, phosphorylation of AXL in H1944 and A549 cells; format: cell-based, human; settings: 100 nM monotherapy, 1 day
Procedure: as §2

IC50 [2]	IC50 [3]	Structure (SMILES)	activity at 10 µM [1]	phosphorylation of IGF-1R [4]	phosphorylation of AXL [5]
–	–	Cc1ccc(-c2n[nH]c3ncnc(N)c23)cc1 [Compound 1a]	98%	–	–
–	–	Oc1ccc(Nc2nccc(Nc3cnc4ccccc4c3)n2)cc1 [Compound 23a]	69%	–	–
12.8 µM	3.78 µM	C[C@]1(O)C[C@@H](c2nc(-c3ccc4ccc(-c5ccccc5)nc4c3)c3c(N)nccn32)C1 [Linsitinib]	–	suppressed phosphorylation	–
–	–	COc1cc(Nc2c(C#N)cnc3cc(OCCCN4CCN(C)CC4)c(OC)cc23)c(Cl)cc1Cl [Bosutinib, bosutinib, reference compound]	46%	–	–
0.02 µM	0.54 µM	Cc1nc(Nc2ncc(C(=O)Nc3c(C)cccc3Cl)s2)cc(N2CCN(CCO)CC2)n1 [Dasatinib, dasatinib]	–	–	–

Structure (SMILES)	IC50 [2]	IC50 [3]	activity at 10 µM [1]	phosphorylation of IGF-1R [4]	phosphorylation of AXL [5]
Nc1nc(Nc2ccc3c(c2)CC[C@@H](N2CCCC2)CC3)nn1-c1cc2c(nn1)-c1ccccc1CCC2 [Bemcentinib, bemcentinib]	0.53 µM	0.18 µM	–	–	suppressed phosphorylation
